# How the values were obtained:
# Format in all cases: cell-based, human
# HaCaT cells [1] = assay: HA-ELISA of hyaluronic acid discharged into culture medium of HaCaT cells; details: 24 hours
# Method: Firstly, the cells were cultured in a Dulbecco's modified Eagle's media (DMEM) containing 10% fetal bovine serum (HyClone), sodium bicarbonate 3.6 g/l and antibody (streptomycin 100 μg and penicillin 100 IU/l) (Life Technologies, Inc.) under proper culture conditions (37° C., 5% CO2, 95% air). The medium was replaced every three days and the cells were secondary-cultured in a division ratio of 1:5 as soon as the density thereof reached the highest. 1×10^5 cells per 75 cm^2 of a tissue culture flask were aliquot 72 hours before the cell were treated with kaempferol or quercetin, and then cultured in a medium containing 10% fetal bovine serum for 48 hours. Then, the cells were cultured in a serum-free medium for 24 hours, treated with kaempferol and quercetin in concentrations of […], 1 μM and 10 μM, respectively and then cultured for 24 hours. A control group was diluted in a ratio of 1:1,000 and cultured in a medium supplemented with vehicle (dimethylsulfoxide, DMSO).
# In order to examine that a production of hyaluronic acid was actually promoted by kaempferol and quercetin, a culture medium of HaCaT cell, which is a skin cell line of human epidermis was treated with kaempferol and quercetin, in several concentrations. After that, an amount of hyaluronic acid that synthesis of hyaluronic acid is promoted and then the acid is discharged into the medium was quantified using HA-ELISA Kit.
# To perform the ELISA, it was purchased a Hyaluronan Enzyme-Linked ImmunoSorbent Assay Kit (HA-ELISA, Product No.: K-1200) available from Echelon company. The medium recovered through the above cell cultivation was subject to the HA-ELISA Kit according to manufacturer's instructions, thereby quantifying the synthesis amount of hyaluronic acid that was synthesized in HaCaT cell by kaempferol and quercetin and then discharged into the medium. The control group was diluted in a ratio of 1:1,000 and then cultured in a medium supplemented with vehicle (dimethylsulfoxide, DMSO).
# (§1) A significance was considered, based on p=0.05 and data was shown with mean±standard error.
# [2] = system: hyaluronan synthase 2 (HAS2); assay: Quantitative reverse transcription PCR of HAS2 mRNA in HaCaT cells; details: treated 24 hours, expressed in treatment groups as well as the control group
# Source text: In order to examine an effect of increasing an expression of a HAS gene by kaempferol and quercetin in HaCaT which is a skin cell line of human epidermis, HaCaT cells were respectively treated with kaempferol and quercetin in several concentrations, then the HAS gene was subject to quantitative reverse transcription PCR so as to examine an expression of the HAS gene in a level of mRNA and thus changes of the HAS genes by kaempferol and quercetin were examined as follows. Human keratinocyte cell line, HaCaT cell, which was spontaneously immortalized, was used and obtained from Dr. N. E. Fusenig (Deutsches Krebsforschungszentrum (DKFZ), Heidelberg, Germany). […] A concentration of RNA was measured with a spectrophotometry method and a quality of RNA was checked with an agarose gel electrophoresis. It was examined through a quantitative reverse transcription PCR kaempferol and quercetin's influences on mRNA synthesis of hyaluronan synthase 1 (NAS1), hyaluronan synthase 2 (HAS2) and hyaluronan synthase 3 (HAS3), which are isoforms of hyaluronic acid synthase, as follows. Firstly, a RNA prepared and quantified in the above experimental example 1-2 was subject to a reverse transcription and then it was performed a quantitative PCR under the presence of primers specific for HAS1, HAS2 and HAS3 which are isoforms of hyaluronic acid synthase. […]
# [3] = system: hyaluronan synthase 3 (HAS3); assay: Quantitative reverse transcription PCR of HAS3 mRNA in HaCaT cells; details: 24 hours
# Source text: In order to examine an effect of increasing an expression of a HAS gene by kaempferol and quercetin in HaCaT which is a skin cell line of human epidermis, HaCaT cells were respectively treated with kaempferol and quercetin in several concentrations, then the HAS gene was subject to quantitative reverse transcription PCR so as to examine an expression of the HAS gene in a level of mRNA and thus changes of the HAS genes by kaempferol and quercetin were examined as follows. Human keratinocyte cell line, HaCaT cell, which was spontaneously immortalized, was used and obtained from Dr. N. E. Fusenig (Deutsches Krebsforschungszentrum (DKFZ), Heidelberg, Germany). Firstly, the cells were cultured in a Dulbecco's modified Eagle's media (DMEM) containing 10% fetal bovine serum (HyClone), sodium bicarbonate 3.6 g/l and antibody (streptomycin 100 μg and penicillin 100 IU/l) (Life Technologies, Inc.) under proper culture conditions (37° C., 5% CO2, 95% air). […] A control group was diluted in a ratio of 1:1,000 and cultured in a medium supplemented with vehicle (dimethylsulfoxide, DMSO). It was not observed any effects of DMSO influencing on growth and differentiation in the control group culture. The HaCaT cells cultured in the experimental example 1-1 were cleaned two times with a phosphate-buffered saline (Life Technologies, Inc.) and RNAs of all cells were separated using a trizol reagent (GibcoBRL Life Technologies, Grand Island, N.Y.) according to manufacturer's instructions. A concentration of RNA was measured with a spectrophotometry method and a quality of RNA was checked with an agarose gel electrophoresis. It was examined through a quantitative reverse transcription PCR kaempferol and quercetin's influences on mRNA synthesis of hyaluronan synthase 1 (NAS1), hyaluronan synthase 2 (HAS2) and hyaluronan synthase 3 (HAS3), which are isoforms of hyaluronic acid synthase, as follows. Firstly, a RNA prepared and quantified in the above experimental example 1-2 was subject to a reverse transcription and then it was performed a quantitative PCR under the presence of primers specific for HAS1, HAS2 and HAS3 which are isoforms of hyaluronic acid synthase. […]
# HaCaT cells [4] = assay: MTT assay of cytotoxicity in HaCaT cells; details: 24 hours
# Method: In order to examine cytotoxicity of kaempferol and quercetin in HaCaT, which is a skin cell line of human epidermis, according to the concentrations thereof, HaCaT was treated with kaempferol and quercetin in several concentrations and then degrees of cytotoxicity were quantified through a MTT assay.
# HaCaT of human keratinocyte cell line, which was spontaneously immortalized, was used and obtained from Dr. N. E. Fusenig (Deutsches Krebsforschungszentrum (DKFZ), Heidelberg, Germany). The cells were cultured in a Dulbecco's modified Eagle's media (DMEM) containing 10% fetal bovine serum (HyClone), sodium bicarbonate 3.6 g/l and antibody (streptomycin 100 μg and penicillin 100 IU/l) (Life Technologies, Inc.) under proper culture conditions (37° C., 5% CO2, 95% air). The medium was replaced every three days and the cells were secondary-cultured in a division ratio of 1:5 as soon as the density thereof reached the highest. 1×10^4 cells per well of a tissue culture flask 96 well plate were aliquot 72 hours before the cells were treated with kaempferol or quercetin, and then cultured in a medium containing 10% fetal bovine serum for 48 hours. Then, the cells were cultured for 24 hours in a serum-free medium, treated with kaempferol and quercetin in concentrations of 0.1 μM, 1 μM and 10 μM, respectively and then cultured for 24 hours. A control group was diluted in a ratio of 1:1,000 and cultured in a medium supplemented with vehicle (dimethylsulfoxide, DMSO).
# as §1
SMILES,increase of hyaluronic acid synthesis compared to the control group (HaCaT cells [1]; 1 μM) [%],increase of hyaluronic acid synthesis compared to the control group (HaCaT cells [1]; 10 μM) [%],expression of HAS2 hyaluronic acid synthase gene (mRNA) [2],HAS3 mRNA expression compared to the control group ([3]; 1 μM),HAS3 mRNA expression compared to the control group ([3]; 10 μM),cytotoxicity compared to the control group (MTT) (HaCaT cells [4]; 0.1 μM),cytotoxicity compared to the control group (MTT) (HaCaT cells [4]; 1 μM),cytotoxicity compared to the control group (MTT) (HaCaT cells [4]; 10 μM)
"O=c1c(O)c(-c2ccc(O)cc2)oc2cc(O)cc(O)c12 [kaempferol, Kaempferol]",7,8,expressed,increased,increased,did not exhibit cytotoxicity,did not exhibit cytotoxicity,did not exhibit cytotoxicity
O=c1c(O)c(-c2ccc(O)c(O)c2)oc2cc(O)cc(O)c12 [quercetin],11,24,expressed,increased,increased,did not exhibit cytotoxicity,did not exhibit cytotoxicity,did not exhibit cytotoxicity

# Reference: patent US20110124719A1, “COMPOSITION FOR PROMOTING PRODUCTION OF HYALURONIC ACID CONTAINING KAEMPFEROL AND QUERCETIN” (Amorepacific Corporation, priority 2004, published 2011)
